According to US20230085307A1, “PYRIDAZINONE COMPOUND AND HERBICIDE” (NISSAN CHEMICAL CORPORATION, priority 2019, published 2023):

How the values were obtained:
[1] = system: wild oat; test: Test Example 4: herbicidal effect by soil treatment (Table 19, symbol I); type: in vivo, wild oat (Avena fatua); settings: amount of applied herbicide 320 g/ha
How it was run: (§1)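 Herbicidal effect was rated 3 weeks after treatment, using the scoring criteria of an earlier test. The compound, formulated as an emulsion and diluted in water to a set herbicide amount, had been sprayed uniformly on soil over freshly sown seeds. Growth took place in a greenhouse at 25° C. to 30° C.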

[2] = system: blackgrass; test: Test Example 5: herbicidal effect by foliage application, plastic box (Table 20, symbol J); type: in vivo, blackgrass (Alopecurus myosuroides); settings: foliage application, 320 g/ha
How it was run: (§2)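 Foliar spray test: emulsion formulation diluted in water to a set application rate, sprayed onto 14-day-old plants raised in diluvial soil at 25° C to 30° C under glass. Both herbicidal effect and crop effect rated visually three weeks later.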

[3] = system: chickweed; test: Test Example 4: herbicidal effect by soil treatment (Table 19, symbol P); type: in vivo, common chickweed (Stellaria media); settings: amount of applied herbicide 320 g/ha
How it was run: as §1

[4] = system: velvetleaf; test: Test Example 4: herbicidal effect by soil treatment (Table 19, symbol M); type: in vivo, velvetleaf (Abutilon theophrasti); settings: amount of applied herbicide 320 g/ha
How it was run: as §1

[5] = system: southern crabgrass; test: Test Example 5: herbicidal effect by foliage application, plastic box (Table 20, symbol F); type: in vivo, southern crabgrass (Digitaria ciliaris); settings: foliage application, 320 g/ha
How it was run: as §2

[6] = system: lambsquarters; test: Test Example 5: herbicidal effect by foliage application, plastic box (Table 20, symbol O); type: in vivo, lambsquarters (Chenopodium album); settings: foliage application, 320 g/ha
How it was run: as §2

[7] = system: barnyard grass; test: Test Example 5: herbicidal effect by foliage application, plastic box (Table 20, symbol H); type: in vivo, barnyard grass (Echinochloa crus-galli); settings: foliage application, 320 g/ha
How it was run: as §2

[8] = system: false cleavers; test: Test Example 4: herbicidal effect by soil treatment (Table 19, symbol Q); type: in vivo, false cleavers (Galium spurium); settings: amount of applied herbicide 320 g/ha
How it was run: as §1

[9] = system: Japanese bulrush; test: Test Example 1: herbicidal activity, application before weed generation under submerged conditions (Table 16, symbol B); type: in vivo, Japanese bulrush (Schoenoplectus juncoides); settings: amount of applied herbicide 320 g/ha
How it was run: (§3)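 Submerged Wagner pots (alluvial soil, 4 cm water) sown with weed seeds and planted with 2.5-leaf rice seedlings; emulsifiable concentrate diluted in water applied to water surface on sowing day. Held in greenhouse at 25-30 °C; injury scored 0-5 by herbicidal rate after three weeks.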

[10] = system: Chinese sprangletop; test: Test Example 3: herbicidal effect by foliage application, Wagner pot (Table 18, symbol D); type: in vivo, chinese sprangletop (Leptochloa chinensis)
How it was run: (§4)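 Plants were sown in alluvial soil held under 0.1–0.5 cm standing water and grown 14 days in a greenhouse at 25–30 °C. An emulsifiable formulation, water-diluted to the set dose, was then sprayed onto the foliage, and effects were scored three weeks later using previously defined criteria.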

[11] = system: barnyard grass; test: Test Example 3: herbicidal effect by foliage application, Wagner pot (Table 18, symbol H); type: in vivo, barnyard grass (Echinochloa crus-galli)
How it was run: as §4

[12] = system: blackgrass; test: Test Example 4: herbicidal effect by soil treatment (Table 19, symbol J); type: in vivo, blackgrass (Alopecurus myosuroides); settings: amount of applied herbicide 320 g/ha
How it was run: as §1

[13] = system: green foxtail; test: Test Example 4: herbicidal effect by soil treatment (Table 19, symbol G); type: in vivo, green foxtail (Setaria viridis); settings: amount of applied herbicide 320 g/ha
How it was run: as §1

[14] = system: Italian ryegrass; test: Test Example 4: herbicidal effect by soil treatment (Table 19, symbol K); type: in vivo, Italian ryegrass (Lolium multiflorum); settings: amount of applied herbicide 320 g/ha
How it was run: as §1

[15] = system: Italian ryegrass; test: Test Example 5: herbicidal effect by foliage application, plastic box (Table 20, symbol K); type: in vivo, Italian ryegrass (Lolium multiflorum); settings: foliage application, 320 g/ha
How it was run: as §2

[16] = system: late watergrass; test: Test Example 1: herbicidal activity, application before weed generation under submerged conditions (Table 16, symbol A); type: in vivo, late watergrass (Echinochloa oryzicola); settings: amount of applied herbicide 320 g/ha
How it was run: as §3

[17] = system: redroot pigweed; test: Test Example 4: herbicidal effect by soil treatment (Table 19, symbol N); type: in vivo, redroot pigweed (Amaranthus retroflexus); settings: amount of applied herbicide 320 g/ha
How it was run: as §1

[18] = system: windgrass; test: Test Example 5: herbicidal effect by foliage application, plastic box (Table 20, symbol L); type: in vivo, windgrass (Apera spica-venti); settings: foliage application, 320 g/ha
How it was run: as §2

[19] = system: false cleavers; test: Test Example 5: herbicidal effect by foliage application, plastic box (Table 20, symbol Q); type: in vivo, false cleavers (Galium spurium); settings: foliage application, 320 g/ha
How it was run: as §2

[20] = system: wild oat; test: Test Example 5: herbicidal effect by foliage application, plastic box (Table 20, symbol I); type: in vivo, wild oat (Avena fatua); settings: foliage application, 320 g/ha
How it was run: as §2

[21] = system: velvetleaf; test: Test Example 5: herbicidal effect by foliage application, plastic box (Table 20, symbol M); type: in vivo, velvetleaf (Abutilon theophrasti); settings: foliage application, 320 g/ha
How it was run: as §2

[22] = system: oval-leafed pondweed; test: Test Example 1: herbicidal activity, application before weed generation under submerged conditions (Table 16, symbol C); type: in vivo, oval-leafed pondweed (Monochoria vaginalis); settings: amount of applied herbicide 320 g/ha
How it was run: as §3

[23] = system: green foxtail; test: Test Example 5: herbicidal effect by foliage application, plastic box (Table 20, symbol G); type: in vivo, green foxtail (Setaria viridis); settings: foliage application, 320 g/ha
How it was run: as §2

[24] = system: redroot pigweed; test: Test Example 5: herbicidal effect by foliage application, plastic box (Table 20, symbol N); type: in vivo, redroot pigweed (Amaranthus retroflexus); settings: foliage application, 320 g/ha
How it was run: as §2

[25] = system: windgrass; test: Test Example 4: herbicidal effect by soil treatment (Table 19, symbol L); type: in vivo, windgrass (Apera spica-venti); settings: amount of applied herbicide 320 g/ha
How it was run: as §1

[26] = system: chickweed; test: Test Example 5: herbicidal effect by foliage application, plastic box (Table 20, symbol P); type: in vivo, common chickweed (Stellaria media); settings: foliage application, 320 g/ha
How it was run: as §2

[27] = system: lambsquarters; test: Test Example 4: herbicidal effect by soil treatment (Table 19, symbol O); type: in vivo, lambsquarters (Chenopodium album); settings: amount of applied herbicide 320 g/ha
How it was run: as §1

[28] = system: persian speedwell; test: Test Example 4: herbicidal effect by soil treatment (Table 19, symbol R); type: in vivo, Persian speedwell (Veronica persica); settings: amount of applied herbicide 320 g/ha
How it was run: as §1

[29] = system: persian speedwell; test: Test Example 5: herbicidal effect by foliage application, plastic box (Table 20, symbol R); type: in vivo, Persian speedwell (Veronica persica); settings: foliage application, 320 g/ha
How it was run: as §2

[30] = system: barnyard grass; test: Test Example 4: herbicidal effect by soil treatment (Table 19, symbol H); type: in vivo, barnyard grass (Echinochloa crus-galli); settings: amount of applied herbicide 320 g/ha
How it was run: as §1

[31] = system: rice flat sedge; test: Test Example 3: herbicidal effect by foliage application, Wagner pot (Table 18, symbol E); type: in vivo, rice flat sedge (Cyperus iria)
How it was run: as §4

[32] = system: southern crabgrass; test: Test Example 4: herbicidal effect by soil treatment (Table 19, symbol F); type: in vivo, southern crabgrass (Digitaria ciliaris); settings: amount of applied herbicide 320 g/ha
How it was run: as §1

[33] = evaluated 3 weeks after application
[34] = amount of applied herbicide 320 g/ha

SMILES | I: wild oat, herbicidal effect grade [1] | P: chickweed, herbicidal effect grade [3] | M: velvetleaf, herbicidal effect grade [4] | Q: false cleavers, herbicidal effect grade [8] | Herbicidal effect, B: Japanese bulrush [9] | J: blackgrass, herbicidal effect grade [12] | G: green foxtail, herbicidal effect grade [13] | K: Italian ryegrass, herbicidal effect grade [14] | Herbicidal effect, A: late watergrass [16] | N: redroot pigweed, herbicidal effect grade [17] | Herbicidal effect, C: oval-leafed pondweed [22] | L: windgrass, herbicidal effect grade [25] | O: lambsquarters, herbicidal effect grade [27] | R: persian speedwell, herbicidal effect grade [28] | H: barnyard grass, herbicidal effect grade [30] | F: southern crabgrass, herbicidal effect grade [32] | other results
CCn1nc(C)c(O)c(-c2c(-c3ccccc3OC)sc3cc(OC)ccc23)c1=O [3-084] | 2 (Herbicidal rate of 20% or more and less than 40%) | 4 (Herbicidal rate of 70% or more and less than 90%) | 0 (Herbicidal rate of 5% or less (almost no effect)) | 3 (Herbicidal rate of 40% or more and less than 70%) | 3 (Herbicidal rate of 40% or more and less than 70%) | 0 (Herbicidal rate of 5% or less (almost no effect)) | 0 (Herbicidal rate of 5% or less (almost no effect)) | 1 (Herbicidal rate of 5% or more and less than 20%) | 0 (Herbicidal rate of 5% or less (almost no effect)) | 4 (Herbicidal rate of 70% or more and less than 90%) | 1 (Herbicidal rate of 5% or more and less than 20%) | 0 (Herbicidal rate of 5% or less (almost no effect)) | 2 (Herbicidal rate of 20% or more and less than 40%) | 4 (Herbicidal rate of 70% or more and less than 90%) | 0 (Herbicidal rate of 5% or less (almost no effect)) | 0 (Herbicidal rate of 5% or less (almost no effect)) | J: blackgrass, herbicidal effect grade ([2]; three weeks after application): 4 (Herbicidal rate of 70% or more and less than 90%); F: southern crabgrass, herbicidal effect grade ([5]; three weeks after application): 3 (Herbicidal rate of 40% or more and less than 70%); O: lambsquarters, herbicidal effect grade ([6]; three weeks after application): 3 (Herbicidal rate of 40% or more and less than 70%); H: barnyard grass, herbicidal effect grade ([7]; three weeks after application): 3 (Herbicidal rate of 40% or more and less than 70%); herbicidal effect on Chinese sprangletop (D) ([10]; 320 g/ha): 0 (Herbicidal rate of 5% or less (almost no effect)); herbicidal effect on barnyard grass (H) ([11]; 320 g/ha): 5 (Herbicidal rate of 90% or more (almost completely withered)); K: Italian ryegrass, herbicidal effect grade ([15]; three weeks after application): 1 (Herbicidal rate of 5% or more and less than 20%); L: windgrass, herbicidal effect grade ([18]; three weeks after application): 3 (Herbicidal rate of 40% or more and less than 70%); Q: false cleavers, herbicidal effect grade ([19]; three weeks after application): 5 (Herbicidal rate of 90% or more (almost completely withered)); I: wild oat, herbicidal effect grade ([20]; three weeks after application): 3 (Herbicidal rate of 40% or more and less than 70%); M: velvetleaf, herbicidal effect grade ([21]; three weeks after application): 4 (Herbicidal rate of 70% or more and less than 90%); G: green foxtail, herbicidal effect grade ([23]; three weeks after application): 3 (Herbicidal rate of 40% or more and less than 70%); N: redroot pigweed, herbicidal effect grade ([24]; three weeks after application): 5 (Herbicidal rate of 90% or more (almost completely withered)); P: chickweed, herbicidal effect grade ([26]; three weeks after application): 5 (Herbicidal rate of 90% or more (almost completely withered)); R: persian speedwell, herbicidal effect grade ([29]; three weeks after application): 5 (Herbicidal rate of 90% or more (almost completely withered)); herbicidal effect on rice flat sedge (E) ([31]; 320 g/ha): 3 (Herbicidal rate of 40% or more and less than 70%)
COc1ccc2c(-c3c(O)c(C)nn(C)c3=O)c(-c3ccccc3OC)oc2c1 [10-001] | 0 (Herbicidal rate of 5% or less (almost no effect)) | 0 (Herbicidal rate of 5% or less (almost no effect)) | 0 (Herbicidal rate of 5% or less (almost no effect)) | 0 (Herbicidal rate of 5% or less (almost no effect)) | 0 (Herbicidal rate of 5% or less (almost no effect)) | 0 (Herbicidal rate of 5% or less (almost no effect)) | 0 (Herbicidal rate of 5% or less (almost no effect)) | 0 (Herbicidal rate of 5% or less (almost no effect)) | 0 (Herbicidal rate of 5% or less (almost no effect)) | 0 (Herbicidal rate of 5% or less (almost no effect)) | 3 (Herbicidal rate of 40% or more and less than 70%) | 0 (Herbicidal rate of 5% or less (almost no effect)) | 0 (Herbicidal rate of 5% or less (almost no effect)) | 5 (Herbicidal rate of 90% or more (almost completely withered)) | 0 (Herbicidal rate of 5% or less (almost no effect)) | 0 (Herbicidal rate of 5% or less (almost no effect)) | J (blackgrass) herbicidal effect grade [2, 33]: 0 (Herbicidal rate of 5% or less (almost no effect)); F (southern crabgrass) herbicidal effect grade [5, 33]: 2 (Herbicidal rate of 20% or more and less than 40%); O (lambsquarters) herbicidal effect grade [6, 33]: 4 (Herbicidal rate of 70% or more and less than 90%); H (barnyard grass) herbicidal effect grade [7, 33]: 3 (Herbicidal rate of 40% or more and less than 70%); Herbicidal effect on D (Chinese sprangletop), foliage application [10, 34]: 0 (Herbicidal rate of 5% or less (almost no effect)); Herbicidal effect on H (barnyard grass), foliage application [11, 34]: 3 (Herbicidal rate of 40% or more and less than 70%); K (Italian ryegrass) herbicidal effect grade [15, 33]: 0 (Herbicidal rate of 5% or less (almost no effect)); L (windgrass) herbicidal effect grade [18, 33]: 3 (Herbicidal rate of 40% or more and less than 70%); Q (false cleavers) herbicidal effect grade [19, 33]: 4 (Herbicidal rate of 70% or more and less than 90%); I (wild oat) herbicidal effect grade [20, 33]: 0 (Herbicidal rate of 5% or less (almost no effect)); M (velvetleaf) herbicidal effect grade [21, 33]: 3 (Herbicidal rate of 40% or more and less than 70%); G (green foxtail) herbicidal effect grade [23, 33]: 3 (Herbicidal rate of 40% or more and less than 70%); N (redroot pigweed) herbicidal effect grade [24, 33]: 3 (Herbicidal rate of 40% or more and less than 70%); P (chickweed) herbicidal effect grade [26, 33]: 5 (Herbicidal rate of 90% or more (almost completely withered)); R (persian speedwell) herbicidal effect grade [29, 33]: 5 (Herbicidal rate of 90% or more (almost completely withered)); Herbicidal effect on E (rice flat sedge), foliage application [31, 34]: 2 (Herbicidal rate of 20% or more and less than 40%)
